“And” between values parts separate entries of the source, which are not always exact repeats. Identical values can stand only once. Inconclusive results and toxic doses are left out. Rule for the calls: active = survival T/C of 150% or more; inactive = T/C below 125% in these data.
System: P388 leukemia ip, CD2F1 mice, survival T/C
Assay: NCI In Vivo Anticancer Drug Screen. Data for tumor model P388 Leukemia (intraperitoneal) in CD2F1 (CDF1) mice
Conditions: endpoint: median survival time, higher = longer survival
Procedure, shortened: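 Mice carrying the transplanted tumor received test compound or vehicle. Survival was recorded in each group, and the value is the treated-group measurement divided by that of the vehicle-treated control group.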

[1] = dose: 60.0 mg/kg/injection, schedule: Q01DX005 (ip), vehicle: saline with Tween-80
[2] = dose: 120.0 mg/kg/injection, schedule: Q01DX005 (ip), vehicle: saline with Tween-80
[3] = dose: 240.0 mg/kg/injection, schedule: Q01DX005 (ip), vehicle: saline with Tween-80
[4] = dose: 3.75 mg/kg/injection, schedule: Q01DX005 (ip), vehicle: saline with Tween-80
[5] = dose: 7.5 mg/kg/injection, schedule: Q01DX005 (ip), vehicle: saline with Tween-80
[6] = dose: 15.0 mg/kg/injection, schedule: Q01DX005 (ip), vehicle: saline with Tween-80
[7] = dose: 100.0 mg/kg/injection, schedule: Q01DX009 (ip), vehicle: Klucel (hydroxypropylcellulose) (HPC)
[8] = dose: 200.0 mg/kg/injection, schedule: Q01DX009 (ip), vehicle: Klucel (hydroxypropylcellulose) (HPC)
[9] = dose: 400.0 mg/kg/injection, schedule: Q01DX009 (ip), vehicle: Klucel (hydroxypropylcellulose) (HPC)
[10] = dose: 50.0 mg/kg/injection, schedule: Q01DX005 (ip), vehicle: saline
[11] = dose: 100.0 mg/kg/injection, schedule: Q01DX005 (ip), vehicle: saline
[12] = dose: 200.0 mg/kg/injection, schedule: Q01DX005 (ip), vehicle: saline
[13] = dose: 100.0 mg/kg/injection, schedule: Q04DX003 (ip), vehicle: Klucel (hydroxypropylcellulose) (HPC)
[14] = dose: 50.0 mg/kg/injection, schedule: Q01DX009 (ip), vehicle: saline with Tween-80
[15] = dose: 100.0 mg/kg/injection, schedule: Q01DX009 (ip), vehicle: saline with Tween-80
[16] = dose: 200.0 mg/kg/injection, schedule: Q01DX009 (ip), vehicle: saline with Tween-80

Measured: T/C

O=C1c2ccccc2SCC12OC2c1ccc(Cl)cc1 (centres undefined)
inactive: dose: 100.0 mg/kg/injection, schedule: Q04DX002 (ip), vehicle: saline with Tween-80 95 % of control | dose: 200.0 mg/kg/injection, schedule: Q04DX002 (ip), vehicle: saline with Tween-80 90 % of control

CC(C)C1=CC(=O)C(C)(C2C(O)CC3(C)C4CC=C5C(CCC(O)C5(C)C)C4(C)C(=O)CC23C)O1 (centres undefined)
inactive: dose: 10.13 mg/kg/injection, schedule: Q01DX005 (ip), vehicle: saline + alcohol 97 % of control | dose: 20.25 mg/kg/injection, schedule: Q01DX005 (ip), vehicle: saline + alcohol 98 % of control | dose: 40.05 mg/kg/injection, schedule: Q01DX005 (ip), vehicle: saline + alcohol 101 % of control | dose: 81.0 mg/kg/injection, schedule: Q01DX005 (ip), vehicle: saline + alcohol 97 % of control

Nc1cncc2nnnn12
inactive: dose: 60.0 mg/kg/injection, schedule: Q01DX005 (ip), vehicle: Klucel (hydroxypropylcellulose) (HPC) 104 % of control | dose: 120.0 mg/kg/injection, schedule: Q01DX005 (ip), vehicle: Klucel (hydroxypropylcellulose) (HPC) 104 % of control | dose: 240.0 mg/kg/injection, schedule: Q01DX005 (ip), vehicle: Klucel (hydroxypropylcellulose) (HPC) 113 % of control

OC1c2ccccc2-c2cccc(N=Cc3ccc4c(c3)OCO4)c21 (centres undefined)
inactive: [1] 108 % of control | [2] 97 % of control | [3] 95 % of control

CNC(=S)/N=c1/sc([N+](=O)[O-])c(C)n1C
inactive: dose: 1.87 mg/kg/injection, schedule: Q01DX005 (ip), vehicle: saline with Tween-80 94 % of control | [4] 92 % of control | [5] 99 % of control and 97 % of control | [6] 95 % of control

O=C(/C=C\c1ccc(Cl)cc1)c1ccccc1
inactive: dose: 12.5 mg/kg/injection, schedule: Q01DX009 (ip), vehicle: Klucel (hydroxypropylcellulose) (HPC) 101 % of control and 91 % of control | dose: 25.0 mg/kg/injection, schedule: Q01DX009 (ip), vehicle: Klucel (hydroxypropylcellulose) (HPC) 100 % of control | dose: 50.0 mg/kg/injection, schedule: Q01DX009 (ip), vehicle: Klucel (hydroxypropylcellulose) (HPC) 93 % of control and 95 % of control | dose: 50.0 mg/kg/injection, schedule: Q01DX009 (ip), vehicle: gum acacia 98 % of control | [7] 99 % of control and 93 % of control | dose: 100.0 mg/kg/injection, schedule: Q01DX009 (ip), vehicle: gum acacia 104 % of control | [8] 98 % of control and 100 % of control | dose: 200.0 mg/kg/injection, schedule: Q01DX009 (ip), vehicle: gum acacia 104 % of control | [9] 108 % of control and 92 % of control | dose: 400.0 mg/kg/injection, schedule: Q01DX009 (ip), vehicle: gum acacia 104 % of control

CC(NC(=O)CNC(=O)CN)C(N)=O (centres undefined)
inactive: [10] 101 % of control | [11] 99 % of control | [12] 101 % of control

CCCCCCCCCCCCCCCCS(=O)(=O)c1ccc(NN)cc1
inactive: [7] 90 % of control | [8] 89 % of control | [9] 87 % of control

O=c1oc2ccccc2cc1S(=O)(=O)c1ccc(Cl)cc1
inactive: [1] 91 % of control | [2] 92 % of control | [3] 91 % of control

CCCCCCCC/C=C\CCCCCCCCN=Cc1c(O)c(O)c(C(C)C)c2cc(C)c(-c3c(C)cc4c(C(C)C)c(O)c(O)c(C=NCCCCCCCC/C=C\CCCCCCCC)c4c3O)c(O)c12
inactive: dose: 25.0 mg/kg/injection, schedule: Q01DX005 (ip), vehicle: saline + Tween-80 + alcohol 105 % of control | dose: 50.0 mg/kg/injection, schedule: Q01DX005 (ip), vehicle: saline + Tween-80 + alcohol 105 % of control | dose: 100.0 mg/kg/injection, schedule: Q01DX005 (ip), vehicle: saline + Tween-80 + alcohol 100 % of control | dose: 200.0 mg/kg/injection, schedule: Q01DX005 (ip), vehicle: saline + Tween-80 + alcohol 105 % of control

COC(=O)/C=C1/Nc2c(N)nc(N)nc2NC1=O
inactive: dose: 100.0 mg/kg/injection, schedule: Q04DX003 (ip), vehicle: saline 108 % of control | dose: 200.0 mg/kg/injection, schedule: Q04DX003 (ip), vehicle: saline 94 % of control | dose: 400.0 mg/kg/injection, schedule: Q04DX003 (ip), vehicle: saline 95 % of control

Cc1ccc2c(c1)C1(C)C=C(CN3CCN(C)CC3)C(=O)CC1O2 (centres undefined)
inactive: [10] 108 % of control | [11] 103 % of control

CCOP(=O)(O)C1CCCC(C)[N-]1.CCOP(=O)(O)C1CCCC(C)[N-]1.[Fe+2] (centres undefined)
inactive: dose: 25.0 mg/kg/injection, schedule: Q04DX003 (ip), vehicle: Klucel (hydroxypropylcellulose) (HPC) 101 % of control | dose: 50.0 mg/kg/injection, schedule: Q04DX003 (ip), vehicle: Klucel (hydroxypropylcellulose) (HPC) 95 % of control | [13] 100 % of control and 89 % of control

CN(C)P(=O)(N(C)C)N1CCCCC1
inactive: [14] 97 % of control | [15] 114 % of control | [16] 100 % of control

CSc1nc(N)c2cnn(Cc3ccccc3)c2n1
inactive: dose: 100.0 mg/kg/injection, schedule: Q01DX001 (ip), vehicle: saline with Tween-80 102 % of control | dose: 200.0 mg/kg/injection, schedule: Q01DX001 (ip), vehicle: saline with Tween-80 100 % of control | dose: 400.0 mg/kg/injection, schedule: Q01DX001 (ip), vehicle: saline with Tween-80 94 % of control

Cc1ccc(S(=O)(=O)OCC(C)(C)CC#N)cc1
inactive: [13] 96 % of control | dose: 200.0 mg/kg/injection, schedule: Q04DX003 (ip), vehicle: Klucel (hydroxypropylcellulose) (HPC) 96 % of control | dose: 400.0 mg/kg/injection, schedule: Q04DX003 (ip), vehicle: Klucel (hydroxypropylcellulose) (HPC) 100 % of control

COc1cc(/C=C2\CN(C)C(=O)C2=O)ccc1O
inactive: [14] 100 % of control | [15] 108 % of control | [16] 109 % of control | dose: 400.0 mg/kg/injection, schedule: Q01DX009 (ip), vehicle: saline with Tween-80 108 % of control

O=C([O-])C(=O)[N-]CCC[N-]C(=O)C(=O)[N-]CCC[N-]C(=O)C(=O)[O-].[Cu+2].[Cu+2].[Na+]
inactive: [4] 103 % of control | [5] 104 % of control | [6] 101 % of control

CC(C)c1cccc(C(C)C)c1NC(=O)N1CCCCC1
inactive: [1] 99 % of control | [2] 93 % of control | [3] 100 % of control

CCNC(=O)OOC(C)(C)C
inactive: dose: 50.0 mg/kg/injection, schedule: Q01DX009 (ip), vehicle: saline 102 % of control | dose: 100.0 mg/kg/injection, schedule: Q01DX009 (ip), vehicle: saline 101 % of control

N#Cc1cc2ccccc2nc1SN
inactive: [10] 100 % of control | [11] 99 % of control | [12] 98 % of control

CC1(C)CC(NCCCN(CCO)CCO)CC(C)(C)N1O
inactive: dose: 30.0 mg/kg/injection, schedule: Q01DX005 (ip), vehicle: saline 96 % of control | dose: 60.0 mg/kg/injection, schedule: Q01DX005 (ip), vehicle: saline 99 % of control | dose: 120.0 mg/kg/injection, schedule: Q01DX005 (ip), vehicle: saline 96 % of control

— PubChem BioAssay AID330 (DTP/NCI, 2004)
